In ChEMBL document CHEMBL1144460, “Design, synthesis, and structural analysis of inhibitors of influenza neuraminidase containing a 2,3-disubstituted tetrahydrofuran-5-carboxylic acid core” (Bioorg Med Chem Lett, 2005):

Molecular target: Neuraminidase (Influenza B virus (strain B/Lee/1940), UniProt P03474)
Experiment: Inhibitory concentration of the compound was determined against neuraminidase B (B/Memphis/3/89) of Influenza virus

Neuraminidase, sequence (P03474 whole entry): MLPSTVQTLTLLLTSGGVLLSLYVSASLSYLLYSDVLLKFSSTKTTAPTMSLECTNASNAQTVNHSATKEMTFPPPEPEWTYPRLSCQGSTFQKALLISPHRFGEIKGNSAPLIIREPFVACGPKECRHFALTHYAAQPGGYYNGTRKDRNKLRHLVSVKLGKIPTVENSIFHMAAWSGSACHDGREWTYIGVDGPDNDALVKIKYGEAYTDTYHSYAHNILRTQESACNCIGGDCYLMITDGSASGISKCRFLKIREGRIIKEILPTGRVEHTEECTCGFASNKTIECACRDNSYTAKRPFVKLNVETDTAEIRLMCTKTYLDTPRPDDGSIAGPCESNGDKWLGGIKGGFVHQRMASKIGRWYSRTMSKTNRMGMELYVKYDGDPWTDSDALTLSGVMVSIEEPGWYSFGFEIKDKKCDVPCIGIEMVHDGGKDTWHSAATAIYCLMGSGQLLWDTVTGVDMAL

SMILES | IC50 [nM]
CC(=O)N[C@@H](CC(C)C)[C@@H]1O[C@@H](C(=O)O)C[C@H]1c1c[nH]cn1 | 1000
COC(=O)[C@@H]1C[C@H](C(=O)O)O[C@H]1[C@H](CC(C)C)NC(C)=O | 960
COC(=O)[C@@H]1C[C@H](C(=O)O)N[C@H]1[C@H](CC(C)C)NC(C)=O | 56
